The source made the active and inactive calls. Some results are limits rather than exact numbers.

Experiment [1] has as its target T1, Protein RecA (Mycobacterium tuberculosis, UniProt P9WHJ3).
T1 sequence (P9WHJ3 whole entry): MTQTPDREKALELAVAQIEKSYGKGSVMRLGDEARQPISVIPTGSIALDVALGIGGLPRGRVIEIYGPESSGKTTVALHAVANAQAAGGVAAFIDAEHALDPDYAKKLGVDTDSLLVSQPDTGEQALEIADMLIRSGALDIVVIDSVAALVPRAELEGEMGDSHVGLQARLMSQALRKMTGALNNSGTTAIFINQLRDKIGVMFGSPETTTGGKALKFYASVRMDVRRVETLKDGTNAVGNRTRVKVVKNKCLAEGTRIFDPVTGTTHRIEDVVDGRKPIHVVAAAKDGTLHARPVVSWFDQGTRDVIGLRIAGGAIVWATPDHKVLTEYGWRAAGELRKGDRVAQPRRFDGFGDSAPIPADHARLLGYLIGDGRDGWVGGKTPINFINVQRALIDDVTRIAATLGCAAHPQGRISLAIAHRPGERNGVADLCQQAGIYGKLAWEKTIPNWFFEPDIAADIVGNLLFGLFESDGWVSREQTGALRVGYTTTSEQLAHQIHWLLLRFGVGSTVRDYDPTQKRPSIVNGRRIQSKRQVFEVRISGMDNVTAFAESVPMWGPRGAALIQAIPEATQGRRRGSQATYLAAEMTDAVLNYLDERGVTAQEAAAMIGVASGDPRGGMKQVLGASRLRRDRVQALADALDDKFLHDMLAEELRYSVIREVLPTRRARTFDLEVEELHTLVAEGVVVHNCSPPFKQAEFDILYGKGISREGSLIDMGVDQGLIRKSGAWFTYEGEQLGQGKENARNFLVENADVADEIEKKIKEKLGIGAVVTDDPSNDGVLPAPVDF
The experiment can be described thus: Fluorescence Cell-Free Homogeneous Dose Retest to Identify Inhibitors of RecA-Intein Splicing Activity. [Related pubchem assays (depositor defined):AID2097, AID2223, AID489010, AID492950]. It counts as functional.

The nature of experiment [2]: C. albicans growth with fluconazole, confirmation, fluorescence, retest (AID 2467). Type of experiment: functional, cell-based.
Experiment [3] has as its target Nonstructural protein 1 (Influenza A virus, UniProt Q194T2). It counts as functional, Influenza A virus (A/California/07/2009(H1N1)).
Experiment [4] concerns the target Mitogen-activated protein kinase kinase kinase 20 (Homo sapiens, UniProt Q9NYL2). Type of experiment: functional.
Experiment [5] has as its target Serine/threonine-protein kinase N2 (Homo sapiens, UniProt Q16513). It counts as functional.
The target of experiment [6] is Tyrosine-protein kinase ITK/TSK (Homo sapiens, UniProt Q08881). It counts as functional.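 Also: affinity for ITK measured as one member of a broad kinase panel profiling binding across the kinome.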
The target in experiment [7] is Dual specificity mitogen-activated protein kinase kinase 1 (Homo sapiens, UniProt Q02750). The experiment in a line: Navigating the Kinome. Panel member name: MAP2K1. It counts as functional.
Experiment [8] addresses Serine/threonine-protein kinase TBK1 (Homo sapiens, UniProt Q9UHD2). The experiment can be described thus: Navigating the Kinome. Panel member name: TBK1. Type of experiment: functional.
Experiment [9] deals with Dual specificity tyrosine-phosphorylation-regulated kinase 1B (Homo sapiens, UniProt Q9Y463). The experiment in a line: Navigating the Kinome. Panel member name: DYRK1B. It counts as functional.
Experiment [10] has as its target Receptor-type tyrosine-protein kinase FLT3 (Homo sapiens, UniProt P36888). It counts as functional.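 Also: FLT3 was tested as one member of a kinome-wide kinase panel.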
Experiment [11] addresses Calcium/calmodulin-dependent protein kinase type II subunit delta (Homo sapiens, UniProt Q13557). It counts as functional.
Experiment [12] concerns the target Vascular endothelial growth factor receptor 3 (Homo sapiens, UniProt P35916). It counts as functional.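 Also: value from a kinome-wide profiling panel, with FLT4 as the panel member.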
For experiment [13], the target named is Calcium/calmodulin-dependent protein kinase type 1 (Homo sapiens, UniProt Q14012). Type of experiment: functional.
For experiment [14], the target named is Protein kinase C theta type (Homo sapiens, UniProt Q04759). The experiment can be described thus: Navigating the Kinome. Panel member name: PRKCQ. Type of experiment: functional.
Experiment [15] addresses Maternal embryonic leucine zipper kinase (Homo sapiens, UniProt Q14680). It counts as functional.
The target in experiment [16] is Tyrosine-protein kinase Blk (Homo sapiens, UniProt P51451). It counts as functional.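 Also: obtained as one member of a kinome-wide kinase assay panel.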
Experiment [17] concerns the target Mitogen-activated protein kinase 1 (Homo sapiens, UniProt P28482). Type of experiment: functional.
The target in experiment [18] is Leucine-rich repeat serine/threonine-protein kinase 2 (Homo sapiens, UniProt Q5S007). Type of experiment: functional.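 Also: value from a broad kinome-wide panel profiling study in which LRRK2 was one of the kinases tested.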
Experiment [19] concerns the target Protein kinase C delta type (Homo sapiens, UniProt Q05655). Type of experiment: functional.
For experiment [20], the target named is Activated CDC42 kinase 1 (Homo sapiens, UniProt Q07912). The experiment can be described thus: Navigating the Kinome. Panel member name: ACK1. It counts as functional.
Experiment [21] deals with Dual specificity tyrosine-phosphorylation-regulated kinase 3 (Homo sapiens, UniProt O43781). Type of experiment: functional.
The target in experiment [22] is MAP kinase-activated protein kinase 5 (Homo sapiens, UniProt Q8IW41). It counts as functional.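 Also: measured as one member of a kinome panel.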
For experiment [23], the target named is Tyrosine-protein kinase HCK (Homo sapiens, UniProt P08631). The experiment in a line: Navigating the Kinome. Panel member name: HCK. It counts as functional.
Experiment [24] concerns the target Insulin receptor (Homo sapiens, UniProt P06213). It counts as functional.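 Also: insulin receptor kinase tested as one member of a kinome-wide kinase panel.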
Experiment [25] has as its target Macrophage-stimulating protein receptor (Homo sapiens, UniProt Q04912). The experiment in a line: Navigating the Kinome. Panel member name: MST1R. It counts as functional.
Experiment [26] deals with Ephrin type-A receptor 2 (Homo sapiens, UniProt P29317). It counts as functional.
For experiment [27], the target named is Serine/threonine-protein kinase PLK3 (Homo sapiens, UniProt Q9H4B4). Type of experiment: functional.
For experiment [28], the target named is MAP kinase-interacting serine/threonine-protein kinase 2 (Homo sapiens, UniProt Q9HBH9). Type of experiment: functional.
The target in experiment [29] is Aurora kinase B (Homo sapiens, UniProt Q96GD4). It counts as functional.
Experiment [30] deals with Tyrosine-protein kinase ABL1 (Homo sapiens, UniProt P00519). It counts as functional.
The target of experiment [31] is Megakaryocyte-associated tyrosine-protein kinase (Homo sapiens, UniProt P42679). It counts as functional.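 Also: affinity measured as one member of a kinase panel (Navigating the Kinome) against MATK.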
Experiment [32] concerns the target Casein kinase II subunit alpha (Homo sapiens, UniProt P68400). It counts as functional.
Experiment [33] has as its target Mitogen-activated protein kinase 10 (Homo sapiens, UniProt P53779). The experiment in a line: Navigating the Kinome. Panel member name: MAPK10. Type of experiment: functional.
Experiment [34] deals with Rho-associated protein kinase 1 (Homo sapiens, UniProt Q13464). Type of experiment: functional.
For experiment [35], the target named is Protein-tyrosine kinase 2-beta (Homo sapiens, UniProt Q14289). It counts as functional.

Chain of Dual specificity tyrosine-phosphorylation-regulated kinase 1B (Q9Y463 whole entry): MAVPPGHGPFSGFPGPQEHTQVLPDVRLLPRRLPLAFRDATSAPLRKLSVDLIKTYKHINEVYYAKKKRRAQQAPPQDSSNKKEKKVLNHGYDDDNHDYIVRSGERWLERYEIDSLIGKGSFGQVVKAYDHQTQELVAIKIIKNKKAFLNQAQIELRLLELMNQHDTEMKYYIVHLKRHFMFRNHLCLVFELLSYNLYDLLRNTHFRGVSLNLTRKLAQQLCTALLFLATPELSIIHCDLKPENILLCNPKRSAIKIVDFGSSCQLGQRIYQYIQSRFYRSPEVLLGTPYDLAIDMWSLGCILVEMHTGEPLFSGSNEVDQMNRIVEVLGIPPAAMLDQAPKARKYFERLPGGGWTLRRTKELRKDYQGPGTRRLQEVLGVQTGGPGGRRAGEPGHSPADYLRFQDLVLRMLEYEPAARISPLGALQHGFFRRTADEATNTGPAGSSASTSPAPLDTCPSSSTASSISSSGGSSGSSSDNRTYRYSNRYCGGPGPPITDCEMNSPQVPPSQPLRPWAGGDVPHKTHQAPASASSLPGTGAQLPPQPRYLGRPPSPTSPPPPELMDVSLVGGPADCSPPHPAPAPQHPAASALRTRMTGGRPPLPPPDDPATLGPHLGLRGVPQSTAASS
Chain of Tyrosine-protein kinase ITK/TSK (Q08881 whole entry): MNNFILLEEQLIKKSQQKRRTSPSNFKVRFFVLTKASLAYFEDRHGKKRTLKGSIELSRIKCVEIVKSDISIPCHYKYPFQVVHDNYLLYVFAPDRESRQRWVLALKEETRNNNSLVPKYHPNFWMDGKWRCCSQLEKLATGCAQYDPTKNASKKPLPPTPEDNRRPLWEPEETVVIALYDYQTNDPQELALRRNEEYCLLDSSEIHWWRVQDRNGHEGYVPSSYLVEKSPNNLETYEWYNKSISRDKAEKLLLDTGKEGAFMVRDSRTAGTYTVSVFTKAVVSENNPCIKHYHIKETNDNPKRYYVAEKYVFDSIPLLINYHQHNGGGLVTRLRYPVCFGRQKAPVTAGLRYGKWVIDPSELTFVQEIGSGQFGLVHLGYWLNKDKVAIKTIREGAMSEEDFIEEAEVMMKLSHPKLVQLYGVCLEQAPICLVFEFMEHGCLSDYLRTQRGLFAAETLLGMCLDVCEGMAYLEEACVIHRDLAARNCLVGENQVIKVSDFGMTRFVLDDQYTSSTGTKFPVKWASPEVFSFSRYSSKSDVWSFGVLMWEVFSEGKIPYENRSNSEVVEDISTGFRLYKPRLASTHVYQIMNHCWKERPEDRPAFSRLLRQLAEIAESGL
Chain of Receptor-type tyrosine-protein kinase FLT3 (P36888 whole entry): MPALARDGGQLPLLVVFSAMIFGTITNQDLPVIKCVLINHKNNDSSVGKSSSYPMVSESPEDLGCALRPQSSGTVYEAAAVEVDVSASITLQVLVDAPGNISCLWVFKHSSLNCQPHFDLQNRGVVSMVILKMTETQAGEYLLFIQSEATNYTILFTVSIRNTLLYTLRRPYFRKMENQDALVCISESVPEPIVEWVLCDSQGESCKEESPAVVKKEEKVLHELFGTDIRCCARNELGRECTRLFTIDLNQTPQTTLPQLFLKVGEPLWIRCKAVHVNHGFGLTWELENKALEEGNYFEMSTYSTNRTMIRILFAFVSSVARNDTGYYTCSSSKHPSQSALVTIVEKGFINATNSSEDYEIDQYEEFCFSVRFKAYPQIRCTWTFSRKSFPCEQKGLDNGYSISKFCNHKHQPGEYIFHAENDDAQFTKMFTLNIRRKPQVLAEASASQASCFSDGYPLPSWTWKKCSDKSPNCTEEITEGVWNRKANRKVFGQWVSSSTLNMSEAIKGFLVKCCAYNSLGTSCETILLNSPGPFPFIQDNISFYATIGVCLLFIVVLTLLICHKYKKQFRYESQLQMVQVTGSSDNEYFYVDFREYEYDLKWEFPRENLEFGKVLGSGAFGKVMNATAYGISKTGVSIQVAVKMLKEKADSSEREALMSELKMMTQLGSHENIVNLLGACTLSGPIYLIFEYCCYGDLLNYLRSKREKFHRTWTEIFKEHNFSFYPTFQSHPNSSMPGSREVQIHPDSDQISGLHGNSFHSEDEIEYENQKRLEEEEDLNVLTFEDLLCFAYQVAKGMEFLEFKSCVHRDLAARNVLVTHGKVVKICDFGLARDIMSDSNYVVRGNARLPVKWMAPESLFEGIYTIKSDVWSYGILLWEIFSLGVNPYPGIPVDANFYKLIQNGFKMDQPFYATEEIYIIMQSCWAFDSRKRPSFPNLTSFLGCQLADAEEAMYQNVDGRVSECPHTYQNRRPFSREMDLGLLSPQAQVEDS
Chain of Leucine-rich repeat serine/threonine-protein kinase 2 (Q5S007 whole entry): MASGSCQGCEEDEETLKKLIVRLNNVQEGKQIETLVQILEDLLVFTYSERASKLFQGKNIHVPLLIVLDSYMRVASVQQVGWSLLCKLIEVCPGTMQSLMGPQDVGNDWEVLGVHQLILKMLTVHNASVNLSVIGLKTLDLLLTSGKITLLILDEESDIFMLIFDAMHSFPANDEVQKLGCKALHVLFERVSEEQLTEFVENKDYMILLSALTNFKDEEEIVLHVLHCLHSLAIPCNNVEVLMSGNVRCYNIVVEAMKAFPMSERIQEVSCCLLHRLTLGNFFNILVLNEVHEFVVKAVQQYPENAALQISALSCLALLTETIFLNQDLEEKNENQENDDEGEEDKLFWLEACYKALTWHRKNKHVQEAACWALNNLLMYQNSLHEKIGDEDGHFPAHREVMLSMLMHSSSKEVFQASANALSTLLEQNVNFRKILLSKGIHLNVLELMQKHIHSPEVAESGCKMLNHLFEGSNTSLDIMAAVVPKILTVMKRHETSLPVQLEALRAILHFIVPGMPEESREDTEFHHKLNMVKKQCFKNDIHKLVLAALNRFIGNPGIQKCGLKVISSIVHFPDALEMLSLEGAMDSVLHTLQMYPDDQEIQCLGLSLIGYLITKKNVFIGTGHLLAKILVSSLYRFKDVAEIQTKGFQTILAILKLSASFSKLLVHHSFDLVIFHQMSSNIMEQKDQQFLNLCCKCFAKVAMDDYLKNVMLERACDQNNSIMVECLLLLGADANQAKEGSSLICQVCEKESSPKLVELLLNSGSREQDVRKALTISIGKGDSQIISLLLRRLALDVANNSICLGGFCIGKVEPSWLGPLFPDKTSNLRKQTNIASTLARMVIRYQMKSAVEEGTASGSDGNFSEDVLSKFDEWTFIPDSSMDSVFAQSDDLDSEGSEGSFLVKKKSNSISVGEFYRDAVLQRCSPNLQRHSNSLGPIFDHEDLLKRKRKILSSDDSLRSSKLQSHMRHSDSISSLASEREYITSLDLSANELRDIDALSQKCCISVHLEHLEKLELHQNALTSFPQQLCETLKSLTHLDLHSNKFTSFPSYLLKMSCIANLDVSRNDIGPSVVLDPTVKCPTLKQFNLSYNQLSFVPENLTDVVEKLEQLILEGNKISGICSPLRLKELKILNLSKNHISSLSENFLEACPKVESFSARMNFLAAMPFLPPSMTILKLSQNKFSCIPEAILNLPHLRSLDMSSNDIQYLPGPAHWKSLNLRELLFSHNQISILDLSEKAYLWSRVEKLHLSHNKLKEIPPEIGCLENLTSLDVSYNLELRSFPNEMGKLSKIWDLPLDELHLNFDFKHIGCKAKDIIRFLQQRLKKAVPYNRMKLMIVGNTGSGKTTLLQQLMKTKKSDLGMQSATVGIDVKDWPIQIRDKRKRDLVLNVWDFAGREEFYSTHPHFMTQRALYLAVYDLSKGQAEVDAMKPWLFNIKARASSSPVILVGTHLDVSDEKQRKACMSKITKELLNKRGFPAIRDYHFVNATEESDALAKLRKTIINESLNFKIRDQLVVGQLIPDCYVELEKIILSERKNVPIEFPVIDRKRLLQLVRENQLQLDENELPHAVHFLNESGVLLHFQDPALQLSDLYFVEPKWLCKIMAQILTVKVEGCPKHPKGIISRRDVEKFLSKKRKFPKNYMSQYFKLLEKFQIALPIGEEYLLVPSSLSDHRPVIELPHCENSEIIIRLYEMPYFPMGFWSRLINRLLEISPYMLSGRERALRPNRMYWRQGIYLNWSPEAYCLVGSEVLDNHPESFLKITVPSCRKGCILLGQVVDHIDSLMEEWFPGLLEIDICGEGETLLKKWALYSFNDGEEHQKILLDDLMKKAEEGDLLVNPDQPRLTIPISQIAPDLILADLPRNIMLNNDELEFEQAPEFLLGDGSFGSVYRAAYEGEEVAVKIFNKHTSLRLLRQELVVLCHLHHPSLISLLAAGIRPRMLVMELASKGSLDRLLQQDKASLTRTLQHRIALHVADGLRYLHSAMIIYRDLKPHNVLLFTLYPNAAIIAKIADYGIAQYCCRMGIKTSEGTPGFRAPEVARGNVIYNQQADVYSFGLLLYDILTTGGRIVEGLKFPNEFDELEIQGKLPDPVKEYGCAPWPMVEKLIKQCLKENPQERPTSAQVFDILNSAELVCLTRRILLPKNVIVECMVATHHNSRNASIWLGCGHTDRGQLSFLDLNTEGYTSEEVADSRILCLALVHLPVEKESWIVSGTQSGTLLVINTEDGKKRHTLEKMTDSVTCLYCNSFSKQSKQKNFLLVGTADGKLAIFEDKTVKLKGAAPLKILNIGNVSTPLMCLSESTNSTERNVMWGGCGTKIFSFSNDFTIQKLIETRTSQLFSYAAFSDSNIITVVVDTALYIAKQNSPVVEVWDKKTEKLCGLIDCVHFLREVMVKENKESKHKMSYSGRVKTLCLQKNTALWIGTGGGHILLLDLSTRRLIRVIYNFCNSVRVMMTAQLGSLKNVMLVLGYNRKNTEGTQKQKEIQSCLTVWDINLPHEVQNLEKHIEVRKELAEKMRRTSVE
Chain of Mitogen-activated protein kinase 1 (P28482 whole entry): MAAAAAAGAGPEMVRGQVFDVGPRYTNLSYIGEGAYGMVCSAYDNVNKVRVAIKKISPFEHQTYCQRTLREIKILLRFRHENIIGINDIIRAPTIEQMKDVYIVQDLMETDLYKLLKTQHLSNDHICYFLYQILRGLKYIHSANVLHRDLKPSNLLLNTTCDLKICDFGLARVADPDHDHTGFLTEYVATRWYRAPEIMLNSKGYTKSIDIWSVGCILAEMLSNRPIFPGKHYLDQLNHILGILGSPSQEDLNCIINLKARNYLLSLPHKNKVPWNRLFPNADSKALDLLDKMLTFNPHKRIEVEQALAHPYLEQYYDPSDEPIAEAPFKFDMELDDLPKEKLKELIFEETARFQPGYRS

What is called EC50 is the concentration that produces a half-maximal response. One may read the IC50 as the concentration that gives 50% inhibition. In the case of `CCCn1nc([N+](=O)[O-])c(C(C#N)c2nc3ccccc3s2)c(Cl)c1=O` (stereo not given), the half-maximal effective concentration (EC50) was 2170 nM (active) in experiment [1] and 661 nM (active) in experiment [2]. In addition, the half-maximal inhibitory concentration (IC50) in [3] is 24700 nM (active).

Broadly, the Ki is a measure of affinity in units of concentration, obtained from inhibition or displacement. For `NCCCn1cc(-c2cc(-c3cc4ccccc4s3)c3[nH]ncc3c2)c2nc(N)ncc21`, the Ki in experiment [4] is 2510 nM (active); in experiment [5] it was 316 nM (active); in [6], > 1580 nM (inactive); in [7], > 3160 nM (inactive); in [8], > 1580 nM (inactive); in experiment [9] it was 631 nM (active). Also, the Ki in experiment [10] was > 1260 nM (inactive); in experiment [11], 158 nM (active); in experiment [12], 1000 nM (active); in experiment [13], 3160 nM (active); in [14], > 2000 nM (inactive); in experiment [15], 251 nM (active). The Ki in experiment [16] was > 1580 nM (inactive); in experiment [17] it was 5010 nM (active); in experiment [18], 251 nM (active); in [19], 316 nM (active); in experiment [20], > 3980 nM (inactive); in experiment [21], 100 nM (active). For the same compound, the Ki is 200 nM (active) in experiment [22]; > 3160 nM (inactive) in [23]; > 5010 nM (inactive) in [24]; > 3980 nM (inactive) in experiment [25]; > 3160 nM (inactive) in [26]; > 7940 nM (inactive) in experiment [27]. The Ki in experiment [28] was 25.1 nM (active); in [29], > 2000 nM (inactive); in [30] it was > 2510 nM (inactive); in experiment [31], > 2000 nM (inactive); in experiment [32], 100 nM (active); in experiment [33], > 3160 nM (inactive). For the same compound, the Ki in experiment [34] is 79.4 nM (active); in experiment [35] it was 251 nM (active).

These data come from ChEMBL document CHEMBL1201862, “PubChem BioAssay data set” (2004).
